Reference: the supplement of paper PMC13207355

How the values were obtained:
Settings in all cases: exposure time: 72 h
[1] = tested on: E21 (patient-derived glioblastoma stem cells of mesenchymal subtype); assay: surviving fraction (nuclei count normalised to DMSO); higher = more cells surviving (less toxic)
[2] = tested on: FT3469 (normal neural stem cell line); assay: as above
[3] = tested on: E57 (patient-derived glioblastoma stem cells of mesenchymal subtype); assay: as above
[4] = tested on: E13 (patient-derived glioblastoma stem cells of classical subtype); assay: as above
[5] = tested on: E31 (patient-derived glioblastoma stem cells of proneural subtype); assay: as above
[6] = tested on: E34 (patient-derived glioblastoma stem cells of proneural subtype); assay: as above
[7] = tested on: E28 (patient-derived glioblastoma stem cells of classical subtype); assay: as above
[8] = tested on: E21; assay: phenotypic distance (Euclidean, principal components) from DMSO controls (arbitrary units); higher = stronger morphological change
[9] = tested on: FT3469; assay: as above
[10] = tested on: E57; assay: as above
[11] = tested on: E13; assay: as above
[12] = tested on: E31; assay: as above
[13] = tested on: E34; assay: as above
[14] = tested on: E28; assay: as above
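Wherever phenotypic distance (Euclidean, principal components) from DMSO controls is given: cell Painting imaging in 384-well plates, CellProfiler features reduced to at least 20 principal components, Euclidean distance versus same-plate DMSO vehicle wells (0.1% v/v), median over six images per well.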
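Wherever surviving fraction (nuclei count normalised to DMSO) is given: nuclei counted by high-content imaging of Hoechst-stained cells in laminin-coated 384-well plates, relative to 0.1% DMSO vehicle wells, with staurosporine as cell-death control.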

O=c1[nH]c(=O)n([C@H]2C[C@H](O)[C@@H](CO)O2)cc1I [Idoxuridine]
Settings	phenotypic distance	surviving fraction
[1], 4.1 nM	–	0.958
[1], 12.3 nM	–	0.967
[1], 37 nM	–	1
[1], 111.1 nM	–	0.893
[1], 333.3 nM	–	1.01
[1], 1000 nM	–	0.969
[1], 3000 nM	–	0.986
[2], 4.1 nM	–	0.845
[2], 12.3 nM	–	1.33
[2], 37 nM	–	0.987
[2], 111.1 nM	–	0.845
[2], 333.3 nM	–	1.18
[2], 1000 nM	–	0.86
[2], 3000 nM	–	1.07
[3], 4.1 nM	–	1.04
[3], 12.3 nM	–	1.02
[3], 37 nM	–	0.958
[3], 111.1 nM	–	0.992
[3], 333.3 nM	–	1.01
[3], 1000 nM	–	0.99
[3], 3000 nM	–	0.867
[4], 4.1 nM	–	0.99
[4], 12.3 nM	–	0.847
[4], 37 nM	–	0.893
[4], 111.1 nM	–	0.967
[4], 333.3 nM	–	0.953
[4], 1000 nM	–	1.02
[4], 3000 nM	–	1.06
[5], 4.1 nM	–	0.736
[5], 12.3 nM	–	1.04
[5], 37 nM	–	0.782
[5], 111.1 nM	–	1.15
[5], 333.3 nM	–	0.725
[5], 1000 nM	–	0.982
[5], 3000 nM	–	0.787
[6], 4.1 nM	–	0.86
[6], 12.3 nM	–	1
[6], 37 nM	–	1.04
[6], 111.1 nM	–	0.92
[6], 333.3 nM	–	1.03
[6], 1000 nM	–	0.959
[6], 3000 nM	–	1.01
[7], 4.1 nM	–	1.11
[7], 12.3 nM	–	0.859
[7], 37 nM	–	1.06
[7], 111.1 nM	–	1.12
[7], 333.3 nM	–	0.97
[7], 1000 nM	–	0.76
[7], 3000 nM	–	0.954
[8], 4.1 nM	0.811	–
[8], 12.3 nM	1.68	–
[8], 37 nM	1.77	–
[8], 111.1 nM	0.694	–
[8], 333.3 nM	1.11	–
[8], 1000 nM	1.12	–
[8], 3000 nM	1.56	–
[9], 4.1 nM	0.962	–
[9], 12.3 nM	1.15	–
[9], 37 nM	0.953	–
[9], 111.1 nM	0.541	–
[9], 333.3 nM	1.76	–
[9], 1000 nM	0.62	–
[9], 3000 nM	0.72	–
[10], 4.1 nM	0.916	–
[10], 12.3 nM	0.612	–
[10], 37 nM	0.986	–
[10], 111.1 nM	1.62	–
[10], 333.3 nM	0.906	–
[10], 1000 nM	1.14	–
[10], 3000 nM	1.5	–
[11], 4.1 nM	1.19	–
[11], 12.3 nM	1.08	–
[11], 37 nM	1.53	–
[11], 111.1 nM	0.919	–
[11], 333.3 nM	0.742	–
[11], 1000 nM	1.06	–
[11], 3000 nM	0.576	–
[12], 4.1 nM	1.23	–
[12], 12.3 nM	0.821	–
[12], 37 nM	0.938	–
[12], 111.1 nM	0.814	–
[12], 333.3 nM	0.763	–
[12], 1000 nM	0.973	–
[12], 3000 nM	0.756	–
[13], 4.1 nM	0.63	–
[13], 12.3 nM	0.803	–
[13], 37 nM	0.845	–
[13], 111.1 nM	0.69	–
[13], 333.3 nM	0.689	–
[13], 1000 nM	0.829	–
[13], 3000 nM	1.45	–
[14], 4.1 nM	0.822	–
[14], 12.3 nM	0.591	–
[14], 37 nM	0.96	–
[14], 111.1 nM	0.701	–
[14], 333.3 nM	0.922	–
[14], 1000 nM	0.762	–
[14], 3000 nM	1.1	–
